Consider nine compounds from PubChem BioAssay (NCI).

Test systems include 786-0 renal; HOP-92 NSCLC; NCI/ADR-RES ovarian; CAKI-1 renal; RPMI-8226 leukemia; SNB-19 CNS; NCI-H226 lung; A498 renal; SK-MEL-28 melanoma; COLO 205 colon; PC-3 prostate; MDA-N; MCF7 breast; OVCAR-4 ovarian; NCI-H23 lung; IGROV1 ovarian.
What all share (assay): NCI anticancer screen, dose series, 48 h

The structures appear in SMILES notation.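 48-hour exposure; five concentrations; linearly interpolated endpoints. The concentration for full growth arrest is given as TGI.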 Where a SMILES comes first, the peptide text is derived from it. [ ]: non-standard residue; d: D form. The star is where a group is joined. ξ: configuration not given here. ξF = NC(Cc1ccccc1)C(=O)O; Cbz = O=C(OCc1ccccc1)*; Aib = CC(C)(N)C(=O)O; NHNH2 = NN*

Regarding `O=c1[nH]c(Cc2ccccc2)nc2c1sc1nc3ccccc3n12`, the TGI in the assay on 786-0 renal, with HOP-92 NSCLC, in the assay on NCI/ADR-RES ovarian, with CAKI-1 renal, in the assay with RPMI-8226 leukemia and in the assay on SNB-19 CNS was over 100 µM each time. Also, the TGI in the assay on NCI-H226 lung, in the assay with A498 renal, in the assay on SK-MEL-28 melanoma, with COLO 205 colon, with PC-3 prostate and in the assay with MDA-N was over 100 µM throughout. In addition, the TGI in the assay on MCF7 breast, in the assay with OVCAR-4 ovarian, with NCI-H23 lung and with IGROV1 ovarian was over 100 µM throughout.

In the case of `NC1=CN(CCCO)C2=N/C(=C\c3ccccc3)C(=O)N12`, the TGI in the assay on 786-0 renal, in the assay on HOP-92 NSCLC, with NCI/ADR-RES ovarian, in the assay with CAKI-1 renal, in the assay on RPMI-8226 leukemia and in the assay with SNB-19 CNS was over 100 µM each time. Also, the TGI in the assay with NCI-H226 lung, in the assay on A498 renal, with SK-MEL-28 melanoma, in the assay on COLO 205 colon, with PC-3 prostate and in the assay on MDA-N was over 100 µM throughout. Further, the TGI in the assay on MCF7 breast, in the assay on OVCAR-4 ovarian, in the assay with NCI-H23 lung and in the assay on IGROV1 ovarian was over 100 µM each time.

`O=C(NC1(c2cc3ccccc3s2)CCCCC1)C1CCC1`: the TGI with 786-0 renal, with HOP-92 NSCLC, in the assay with NCI/ADR-RES ovarian, in the assay with CAKI-1 renal, with RPMI-8226 leukemia and in the assay on SNB-19 CNS was over 100 µM in each case. Also, the TGI in the assay with NCI-H226 lung, in the assay with A498 renal, in the assay with SK-MEL-28 melanoma, in the assay on COLO 205 colon, in the assay on PC-3 prostate and in the assay with MDA-N was over 100 µM in each case. The TGI with MCF7 breast, in the assay on OVCAR-4 ovarian, with NCI-H23 lung and in the assay on IGROV1 ovarian was over 100 µM each time.

Regarding `CC(C)C1C(=O)N(c2c(F)c(F)c(F)c(F)c2F)C(=S)N1CCS(=O)c1ccccc1` (centres undefined), the TGI in the assay with 786-0 renal is 32.1 µM; in the assay on HOP-92 NSCLC it was 34.8 µM; in the assay with NCI/ADR-RES ovarian, 40.8 µM; in the assay with CAKI-1 renal, 9.86 µM; in the assay on RPMI-8226 leukemia it was 53.8 µM; in the assay on SNB-19 CNS it was 34.6 µM. For the same compound, the TGI in the assay with NCI-H226 lung was determined as 38.5 µM; in the assay on A498 renal it was 30.6 µM; with SK-MEL-28 melanoma, 30.8 µM; with COLO 205 colon, 29.9 µM; in the assay with PC-3 prostate, 29.3 µM; in the assay on MDA-N it was 32.4 µM. Further, the TGI worked out at 35.3 µM in the assay on MCF7 breast, 31.1 µM in the assay with OVCAR-4 ovarian, 33.3 µM with NCI-H23 lung and 34.4 µM in the assay on IGROV1 ovarian.

For `C=C=C(CC1CCCCC1=O)S(=O)(=O)c1ccccc1` (centres undefined), the TGI in the assay on 786-0 renal is over 10 µM; in the assay on HOP-92 NSCLC, over 10 µM; in the assay on NCI/ADR-RES ovarian, over 10 µM; with CAKI-1 renal it was over 10 µM; in the assay with RPMI-8226 leukemia it was over 4.76 µM; in the assay with SNB-19 CNS, over 10 µM. Further, the TGI in the assay with NCI-H226 lung, in the assay on A498 renal, in the assay with SK-MEL-28 melanoma, in the assay on COLO 205 colon, in the assay with PC-3 prostate and in the assay with MDA-N was over 10 µM in each case. Further, the TGI in the assay on MCF7 breast, in the assay on OVCAR-4 ovarian, in the assay with NCI-H23 lung and in the assay on IGROV1 ovarian was over 10 µM throughout.

Regarding `COC(=O)C1CCC(=O)N1CN(C(C)=O)c1ccccc1Cl` (centres undefined), the TGI with 786-0 renal, in the assay on HOP-92 NSCLC, with NCI/ADR-RES ovarian, in the assay on CAKI-1 renal, with RPMI-8226 leukemia and in the assay on SNB-19 CNS was over 100 µM in each case. Moreover, the TGI in the assay with NCI-H226 lung, with A498 renal, with SK-MEL-28 melanoma, in the assay on COLO 205 colon, in the assay with PC-3 prostate and with MDA-N was over 100 µM in each case. Also, the TGI in the assay with MCF7 breast, in the assay with OVCAR-4 ovarian, with NCI-H23 lung and in the assay with IGROV1 ovarian was over 100 µM in each case.

Regarding `CC(C)(NC(=O)OCc1ccccc1)C(=O)NC(Cc1ccccc1)C(=O)NN` (centres undefined) (Cbz-[Aib]-[ξF]-NHNH2), the TGI with 786-0 renal, in the assay with HOP-92 NSCLC, in the assay on NCI/ADR-RES ovarian, in the assay with CAKI-1 renal, in the assay on RPMI-8226 leukemia and in the assay with SNB-19 CNS was over 100 µM each time. Further, the TGI with NCI-H226 lung, in the assay on A498 renal, in the assay on SK-MEL-28 melanoma, with COLO 205 colon, in the assay with PC-3 prostate and in the assay with MDA-N was over 100 µM in each case. The TGI in the assay on MCF7 breast, in the assay on OVCAR-4 ovarian, in the assay with NCI-H23 lung and in the assay with IGROV1 ovarian was over 100 µM in each case.

Take `C=CCN(c1cc(OCc2ccccc2)c2[nH]cc(C)c2c1)S(C)(=O)=O`: the TGI with 786-0 renal, with HOP-92 NSCLC, in the assay on NCI/ADR-RES ovarian, with CAKI-1 renal, in the assay on RPMI-8226 leukemia and in the assay with SNB-19 CNS was over 100 µM throughout. In addition, the TGI in the assay on NCI-H226 lung was over 100 µM; in the assay with A498 renal it was 90.9 µM; in the assay on SK-MEL-28 melanoma, over 100 µM; in the assay on COLO 205 colon, over 100 µM; with PC-3 prostate, over 100 µM; in the assay with MDA-N it was over 100 µM. Further, the TGI in the assay with MCF7 breast, in the assay with OVCAR-4 ovarian, in the assay on NCI-H23 lung and in the assay on IGROV1 ovarian was over 100 µM throughout.

`CC(C)OC(=O)c1ccc(CCC2=CC(=O)C=CC2=O)cc1`: the TGI in the assay with 786-0 renal came out at 15.6 µM; in the assay on HOP-92 NSCLC it was 13.9 µM; in the assay on NCI/ADR-RES ovarian, 22.1 µM; in the assay on CAKI-1 renal, 4.26 µM; in the assay with RPMI-8226 leukemia, 24.2 µM; in the assay on SNB-19 CNS, 56.8 µM. Further, the TGI in the assay with NCI-H226 lung was 33.5 µM; in the assay with A498 renal, 45.3 µM; with SK-MEL-28 melanoma it was 32.9 µM; in the assay on COLO 205 colon, 22.1 µM; in the assay with PC-3 prostate, 26.1 µM; in the assay with MDA-N, 22.6 µM. Moreover, the TGI came out at 47.7 µM in the assay with MCF7 breast, 29.6 µM in the assay on OVCAR-4 ovarian, 31.3 µM in the assay on NCI-H23 lung and 27.5 µM in the assay on IGROV1 ovarian.
